Earlier results on 1 compound are cited in patent US20240397917A1, “ANIMAL PRODUCTION METHOD” (DSM IP ASSETS B.V., priority 2021, published 2024).

The conditions of data set [1]: in vivo.
For data set [2] the following is noted: per 1% increase in plasma levels of 25-OH-D3; average of broiler trials.

Take `C=C1CC[C@H](O)C/C1=C/C=C1\CCC[C@]2(C)[C@@H]([C@H](C)CCCC(C)(C)O)CC[C@@H]12` [HyD, calcidiol]: the absorption (at the same level of inclusion in feed) was 74.9%. Also, for the setting “when fed”, the “absorption in the intestine in comparison to Vitamin D3” value is on record as “more efficient absorption”, the “excretion in comparison to Vitamin D3” value is given as “less excretion” and the “retention in comparison to Vitamin D3” value is reported as “greater retention”. The “dose without toxic effects” value in data set [1] is on record as “up to 10 times its recommended dose”. For the same compound, in data set [2], the “improvement in ADG” value is 0.029%, the “improvement in bone strength” value is given as 0.173%, the “improvement in breast meat yield” value is given as 0.008% and the “improvement in gait score” value is recorded as 0.296%.
